Test results as given in US20030157715A1, “Modulation of chromosome function by chromatin remodeling agents” (priority 2000, published 2003).

Legend:
[1] = tested on: homozygous bw^D/bw^D flies; test: P31 fed to developing homozygous brown-dominant flies; format: in vivo
Procedure: These experiments established a remarkable molecular interplay between the GAGAA insert of the bw^D allele and its target-compound P31.
Drug treatments of the bw^D flies were performed as for w^m4 flies except that 30 parental females were allowed to lay eggs. To obtain the heterozygous bw^D/+; st/st progeny, 30 virgin bw^D/bw^D; st/st homozygous females were mated with scarlet homozygous males for about 5 days before transferring them to experimental vials for egg laying.
The lethality of the progenies was calculated by counting the dead bodies and the total empty pupal shells. The A6 to A5 transformation was detected by bristles that form on abdominal segment A6 on males. All male adult flies obtained (˜50) were scored. Sex combs and halteres were individually inspected and photographed under the microscope (Axiophot, Zeiss) after dissecting at least 30 individuals and incubating them into 30 μl of 0.6 g/ml gum arabic; 4 g/ml chlorohydrate; 35% glycerol under a 24×24 mm coverslip as described (Ashburner, 1989). Since raising double heterozygous flies (Ubx^1/+; bw^D/+) led to lethality, we morphologically dissected eight late stage pupae after carefully removing the pupal envelope.

[2] = tested on: homozygous bw^D/bw^D flies; test: as above; format: in vivo; details: 40 homozygous bw^D males
[3] = fly stock of r12, bw^D/bw^+, homozygous per text

CN(C)CCCNC(=O)CCNC(=O)c1nc(NC(=O)CCNC(=O)c2nc(NC(=O)CCNC(=O)c3cc(NC(=O)c4nc(NC(=O)CCNC(=O)c5nccn5C)cn4C)cn3C)cn2C)cn1C [Compound P31, Im-β-Im-Py-β-Im-β-Im-β-Dp]
A6 to A5 [1, 3]: 100% | Lethality [1, 3]: 66% | Sex comb, range of teeth [1, 3]: 6-9 | Sex comb (mean) ([1]; fly stock of r12, bw^D/bw^+, text: homozygous): 7.2 | A6 to A5, number of bristles on A6 ([1]; fly stock of r12, bw^D/bw^+, text: homozygous bw^D males): 3-10 | sex comb teeth, number mostly found ([1]; homozygous bw^D): 6 | progeny that died at the pupal stage ([1]; homozygous bw^D flies): about two thirds | Pupae delay (hrs) ([1]; in vivo): ≥ 65 hrs-∞ | delay of hatching ([1]; in vivo): 65 to 75 h | mean number of bristles on A6 [2]: 6
